Assay results as given in PMC7381750, “JP1 suppresses proliferation and metastasis of melanoma through MEK1/2 mediated NEDD4L-SP1-Integrin αvβ3 signaling” (Theranostics, 2020).

System: B16F10 cell
Assay: B16F10 melanoma-bearing model, JP1 and DTIC alone or in combination
Type: in vivo, mouse
Description: (A-C) (A) Schematic representation of the B16F10 and MEWO cells melanoma-bearing model for JP1 treatment (n = 6 per group). JP1 and its control agents were administered by intraperitoneal injection. […] (D-G) (D) Schematic representation of the B16F10 cell melanoma passive metastasis model for JP1 treatment. JP1 and its control agents were administered by intraperitoneal injection. […] (F) The representative melanoma lung metastatic images by H&E-staining (scale bars, 1000 μm). […] (J-L) (J) Schematic representation of the B16F10 cell melanoma-bearing model (n= 6 per group). Both JP1 and DTIC alone or in combination treatments and relative control was administered by intraperitoneal injection in mice.
The chemotherapeutic agent dacarbazine (DTIC) is currently as the first line drug used to treat metastatic melanoma in clinic, and was reported to cause painful symptoms and acquired resistance, compromising patient quality of life. To determine the possibility as a combination therapy between DTIC and JP1, we completed a joint treatment of DTIC and JP1 for melanoma tumor-bearing model (Figure 2J).

liver HE staining (after DTIC treatment): significant degenerations in liver cells
Compound: CN(C)/N=N/c1[nH]cnc1C(N)=O [DTIC, dacarbazine]
body weight during treatment (80 mg/kg DTIC i.p.): lost body weight continuously during treatment
inhibitory effect on melanoma proliferation (80 mg/kg DTIC i.p., B16F10 melanoma-bearing mouse): more significant inhibitory effect on melanoma proliferation than that by 50 mg/kg JP1
